Laboratory results published in patent publication US10640506B2, “Cyclobutyl substituted pyrrolopyridine and pyrrolopyrimidines derivatives as JAK inhibitors” (Incyte Corporation, priority 2010, dated 2020).
Structures can show the parent of a compound that is named as a salt. Where two headings read alike, the source gives them in different places.

Experiments:
[1] = molecular target: human JAK1 (a.a. 837-1142) (Homo sapiens, UniProt P23458); assay: In vitro JAK kinase assay (HTRF, phosphorylation of biotinylated peptide), JAK1; type: biochemical; conditions: 1 mM ATP, read-out: JAK1 IC50
Outline: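 Phosphorylation of a biotinylated peptide was run at room temperature for 1 hour using the N-terminally His-tagged JAK1 kinase domain (837-1142) from insect cells. After an EDTA stop, Eu-Py20 and SA-APC gave an HTRF read; values are binned potency ranges.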

JAK2 (a.a. 828-1132) = molecular target: T1, JAK2 (a.a. 828-1132) (Homo sapiens, UniProt O60674); assay: In vitro JAK kinase assay (HTRF, phosphorylation of biotinylated peptide), JAK2; type: biochemical; conditions: 1 mM ATP, read-out: JAK2 IC50
T1 construct: JAK2 (a.a. 828-1132); His tag (N)
Outline: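 HTRF detection (Eu-Py20, SA-APC, 40 min) of biotinylated-peptide phosphorylation, following a 1 hour room-temperature reaction quenched with 45 mM EDTA. Enzymes: insect-cell-expressed N-terminal His-tagged JAK1 (837-1142) and JAK2 (828-1132) catalytic domains. Activities reported in ranged categories.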

human JAK1 (a.a. 837-1142), sequence (P23458 849-1154): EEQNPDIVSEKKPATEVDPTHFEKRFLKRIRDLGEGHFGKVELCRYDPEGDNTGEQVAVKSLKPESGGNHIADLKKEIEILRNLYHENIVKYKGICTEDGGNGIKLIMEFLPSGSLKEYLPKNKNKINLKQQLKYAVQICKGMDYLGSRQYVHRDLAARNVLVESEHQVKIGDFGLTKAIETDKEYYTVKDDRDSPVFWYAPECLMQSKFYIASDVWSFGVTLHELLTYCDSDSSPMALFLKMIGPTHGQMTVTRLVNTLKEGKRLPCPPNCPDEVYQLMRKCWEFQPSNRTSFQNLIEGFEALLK
T1 sequence (O60674 828-1132): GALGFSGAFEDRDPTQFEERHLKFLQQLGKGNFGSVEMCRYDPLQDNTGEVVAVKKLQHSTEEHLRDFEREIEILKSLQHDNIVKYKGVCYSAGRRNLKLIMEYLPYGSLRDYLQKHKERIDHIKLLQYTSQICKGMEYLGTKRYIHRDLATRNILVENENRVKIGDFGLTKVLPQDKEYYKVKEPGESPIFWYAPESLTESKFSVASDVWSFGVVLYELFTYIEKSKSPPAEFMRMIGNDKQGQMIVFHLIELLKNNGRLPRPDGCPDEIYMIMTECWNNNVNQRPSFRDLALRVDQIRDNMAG

| SMILES | IC50 ([1]; Table A) [nM] | IC50 (JAK2 (a.a. 828-1132); Table A) [nM] | IC50 ([1]; Table B) [nM] | IC50 (JAK2 (a.a. 828-1132); Table B) [nM] | further results |
| --- | --- | --- | --- | --- | --- |
| N#CC[C@]1(n2cc(-c3ncnc4[nH]ccc34)cn2)C[C@@H](N2CCN(C(=O)c3cccc(C(F)(F)F)c3F)CC2)C1 [Example 22, {cis-3-{4-[2-fluoro-3-(trifluoromethyl)benzoyl]piperazin-1-yl}-1-[4-(7H-pyrrolo[2,3-d]pyrimidin-4-yl)-1H-pyrazol-1-yl]cyclobutyl}acetonitrile] | < 10 | 25 to 100 | – | – | – |
| N#CC[C@]1(n2cc(-c3ncnc4[nH]ccc34)cn2)C[C@H](N2CCN(C(=O)N3CCCCC3)CC2)C1 [Example 25, {trans-3-[4-(piperidin-1-ylcarbonyl)piperazin-1-yl]-1-[4-(7H-pyrrolo[2,3-d]pyrimidin-4-yl)-1H-pyrazol-1-yl]cyclobutyl}acetonitrile] | – | – | 25 to 100 | > 100 | – |
| N#CC[C@]1(n2cc(-c3ncnc4[nH]ccc34)cn2)C[C@@H](N2CCN(C(=O)c3ccc(F)c(OC(F)(F)F)c3)CC2)C1 [Example 26, {cis-3-{4-[4-fluoro-3-(trifluoromethoxy)benzoyl]piperazin-1-yl}-1-[4-(7H-pyrrolo[2,3-d]pyrimidin-4-yl)-1H-pyrazol-1-yl]cyclobutyl}acetonitrile] | 10 to 25 | 25 to 100 | – | – | – |
| N#CC[C@]1(n2cc(-c3ncnc4[nH]ccc34)cn2)C[C@@H](N2CCN(C(=O)c3ncc(C(F)(F)F)cc3F)CC2)C1 [Example 27, {cis-3-(4-{[3-fluoro-5-(trifluoromethyl)pyridin-2-yl]carbonyl}piperazin-1-yl)-1-[4-(7H-pyrrolo[2,3-d]pyrimidin-4-yl)-1H-pyrazol-1-yl]cyclobutyl}acetonitrile] | < 10 | 25 to 100 | – | – | – |
| N#CC[C@]1(n2cc(-c3ncnc4[nH]ccc34)cn2)C[C@@H](N2CCN(C(=O)c3ccc(Cl)cc3)CC2)C1 [Example 28, {cis-3-{4-[4-chlorobenzoyl]piperazin-1-yl}-1-[4-(7H-pyrrolo[2,3-d]pyrimidin-4-yl)-1H-pyrazol-1-yl]cyclobutyl}acetonitrile] | < 10 | 10 to 25 | – | – | – |
| N#CC[C@]1(n2cc(-c3ncnc4[nH]ccc34)cn2)C[C@@H](N2CCN(C(=O)c3ccc(C(F)(F)F)cc3F)CC2)C1 [Example 29, {cis-3-{4-[2-fluoro-4-(trifluoromethyl)benzoyl]piperazin-1-yl}-1-[4-(7H-pyrrolo[2,3-d]pyrimidin-4-yl)-1H-pyrazol-1-yl]cyclobutyl}acetonitrile 2.3×(trifluoroacetate) Salt] | 10 to 25 | 25 to 100 | – | – | – |
| [2H][C@]1(N2CCN(C(=O)c3ccnc(C(F)(F)F)n3)CC2)C[C@@](CC#N)(n2cc(-c3ncnc4[nH]ccc34)cn2)C1 [Example 30, [cis-1-[4-(7H-pyrrolo[2,3-d]pyrimidin-4-yl)-1H-pyrazol-1-yl]-3-(4-{[2-(trifluoromethyl)pyrimidin-4-yl]carbonyl}piperazin-1-yl)cyclobutyl]acetonitrile-d1] | – | – | – | – | IC50 ([1]; Table C): < 10 nM; IC50 (JAK2 (a.a. 828-1132); Table C): > 100 nM |
| [2H][C@]1(N2CCN(C(=O)c3ccnc(C(F)(F)F)n3)CC2)C[C@](CC#N)(n2cc(-c3ncnc4[nH]ccc34)cn2)C1 [Example 31, [trans-1-[4-(7H-pyrrolo[2,3-d]pyrimidin-4-yl)-1H-pyrazol-1-yl]-3-(4-{[2-(trifluoromethyl)pyrimidin-4-yl]carbonyl}piperazin-1-yl)cyclobutyl]acetonitrile-d1] | – | – | – | – | IC50 ([1]; Table D): < 10 nM; IC50 (JAK2 (a.a. 828-1132); Table D): 25 to 100 nM |
| CN(C)C(=O)N1CCN([C@H]2C[C@](CC#N)(n3cc(-c4ncnc5[nH]ccc45)cn3)C2)CC1 [Example 32, 4-{trans-3-(cyanomethyl)-3-[4-(7H-pyrrolo[2,3-d]pyrimidin-4-yl)-1H-pyrazol-1-yl]cyclobutyl}-N,N-dimethylpiperazine-1-carboxamide] | – | – | < 10 | > 100 | – |
| CN(C)Cc1cc(F)cc(C(=O)N2CCN([C@H]3C[C@](CC#N)(n4cc(-c5ncnc6[nH]ccc56)cn4)C3)CC2)c1 [Example 33, {trans-3-(4-{3-[(dimethylamino)methyl]-5-fluorobenzoyl}piperazin-1-yl)-1-[4-(7H-pyrrolo[2,3-d]pyrimidin-4-yl)-1H-pyrazol-1-yl]cyclobutyl}acetonitrile] | – | – | < 10 | < 10 | – |

Second part, led by results:

| IC50 ([1]; Table A) [nM] | IC50 (JAK2 (a.a. 828-1132); Table A) [nM] | IC50 ([1]; Table B) [nM] | IC50 (JAK2 (a.a. 828-1132); Table B) [nM] | SMILES | further results |
| --- | --- | --- | --- | --- | --- |
| < 10 | 25 to 100 | – | – | N#CC[C@]1(n2cc(-c3ncnc4[nH]ccc34)cn2)C[C@@H](N2CCN(C(=O)c3cccc(C(F)(F)F)n3)CC2)C1 [Example 20a, {cis-1-[4-(7H-pyrrolo[2,3-d]pyrimidin-4-yl)-1H-pyrazol-1-yl]-3-(4-{[6-(trifluoromethyl)pyridin-2-yl]carbonyl}piperazin-1-yl)cyclobutyl}acetonitrile] | – |
| – | – | < 10 | 25 to 100 | N#CC[C@]1(n2cc(-c3ncnc4[nH]ccc34)cn2)C[C@H](N2CCN(C(=O)c3cccc(C(F)(F)F)n3)CC2)C1 [Example 20b, {trans-1-[4-(7H-pyrrolo[2,3-d]pyrimidin-4-yl)-1H-pyrazol-1-yl]-3-(4-{[6-(trifluoromethyl)pyridin-2-yl]carbonyl}piperazin-1-yl)cyclobutyl}acetonitrile] | – |
| < 10 | 25 to 100 | – | – | N#CC[C@]1(n2cc(-c3ncnc4[nH]ccc34)cn2)C[C@@H](N2CCN(C(=O)c3cccc(C(F)F)n3)CC2)C1 [Example 21a, {cis-3-(4-{[6-(difluoromethyl)pyridin-2-yl]carbonyl}piperazin-1-yl)-1-[4-(7H-pyrrolo[2,3-d]pyrimidin-4-yl)-1H-pyrazol-1-yl]cyclobutyl}acetonitrile] | – |
| – | – | < 10 | 10 to 25 | N#CC[C@]1(n2cc(-c3ncnc4[nH]ccc34)cn2)C[C@H](N2CCN(C(=O)c3cccc(C(F)F)n3)CC2)C1 [Example 21b, {trans-3-(4-{[6-(difluoromethyl)pyridin-2-yl]carbonyl}piperazin-1-yl)-1-[4-(7H-pyrrolo[2,3-d]pyrimidin-4-yl)-1H-pyrazol-1-yl]cyclobutyl}acetonitrile] | – |
| 10 to 25 | > 100 | – | – | N#CC[C@]1(n2cc(-c3ncnc4[nH]ccc34)cn2)C[C@@H](N2CCN(Cc3cncc(F)c3)CC2)C1 [Example 23a, {cis-3-{4-[(5-fluoropyridin-3-yl)methyl]piperazin-1-yl}-1-[4-(7H-pyrrolo[2,3-d]pyrimidin-4-yl)-1H-pyrazol-1-yl]cyclobutyl}acetonitrile] | – |
| – | – | < 10 | 25 to 100 | N#CC[C@]1(n2cc(-c3ncnc4[nH]ccc34)cn2)C[C@H](N2CCN(Cc3cncc(F)c3)CC2)C1 [Example 23b, {trans-3-{4-[(5-fluoropyridin-3-yl)methyl]piperazin-1-yl}-1-[4-(7H-pyrrolo[2,3-d]pyrimidin-4-yl)-1H-pyrazol-1-yl]cyclobutyl}acetonitrile] | – |
| 10 to 25 | > 100 | – | – | CC(C)c1nccc(C(=O)N2CCN([C@H]3C[C@@](CC#N)(n4cc(-c5ncnc6[nH]ccc56)cn4)C3)CC2)n1 [Example 24a, {cis-3-{4-[(2-isopropylpyrimidin-4-yl)carbonyl]piperazin-1-yl}-1-[4-(7H-pyrrolo[2,3-d]pyrimidin-4-yl)-1H-pyrazol-1-yl]cyclobutyl}acetonitrile] | – |
| – | – | 10 to 25 | 25 to 100 | CC(C)c1nccc(C(=O)N2CCN([C@H]3C[C@](CC#N)(n4cc(-c5ncnc6[nH]ccc56)cn4)C3)CC2)n1 [Example 24b, {trans-3-{4-[(2-isopropylpyrimidin-4-yl)carbonyl]piperazin-1-yl}-1-[4-(7H-pyrrolo[2,3-d]pyrimidin-4-yl)-1H-pyrazol-1-yl]cyclobutyl}acetonitrile] | – |
